What is called IC50 is the concentration that inhibits the measured activity by half. Read a high IC50 as a need for much substance.

The target of this test is T1, RORc ligand binding domain (Homo sapiens, UniProt P51449).
T1 construct: host or cells: E. coli
T1 sequence (P51449 269-508 limits assumed): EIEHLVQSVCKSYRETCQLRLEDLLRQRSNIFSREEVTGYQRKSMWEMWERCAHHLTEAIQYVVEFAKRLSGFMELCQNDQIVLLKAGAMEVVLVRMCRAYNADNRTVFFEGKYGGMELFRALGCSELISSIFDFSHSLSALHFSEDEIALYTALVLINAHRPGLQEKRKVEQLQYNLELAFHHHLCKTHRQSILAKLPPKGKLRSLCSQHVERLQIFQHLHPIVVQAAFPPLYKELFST
In words: In vitro RORc ligand binding assay (25-[3H]hydroxycholesterol displacement, filter binding). The conditions noted are these: 6 nM 25-[3H]hydroxycholesterol, 0.6 ug/mL RORc receptor, 3 h at 25° C. The method in brief:
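Filter-binding displacement of 6 nM 25-[3H]hydroxycholesterol from RORc receptor (0.6 ug/mL) in 50 mM HEPES pH 7.4, 150 mM NaCl, 5 mM MgCl2, 1 mM DTT, 0.01% BSA, 5% DMSO; 3 h at 25° C. NSB defined with 1 uM 25-hydroxycholesterol; scintillation counting gave Kiapp, IC50 or % inhibition (screening at 1 and 10 uM).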

Compound `CC1(C)[C@H]2CC[C@]1(C(=O)N1CCC1)c1nnc(-c3c(F)cccc3F)cc12` [Example 141, azetidin-1-yl((5R,8R)-3-(2,6-difluorophenyl)-9,9-dimethyl-5,6,7,8-tetrahydro-5,8-methanocinnolin-8-yl)methanone] showed an IC50 of 608 nM. As for `COCCOC[C@]12CC[C@H](c3cc(-c4ccccc4F)nnc31)C2(C)C` [Example 26, (5S,8S)-3-(2-fluorophenyl)-8-[(2-methoxyethoxy)methyl]-9,9-dimethyl-5,6,7,8-tetrahydro-5,8-methanocinnoline], the figure is 789 nM; as for `CNC(=O)[C@@H]1[C@@H]2CN(C(=O)[C@]34CC[C@H](c5cc(-c6c(F)cccc6F)nnc53)C4(C)C)C[C@@H]21` [Example 212, (1R,5S,6R)-3-((5S,8S)-3-(2,6-difluorophenyl)-9,9-dimethyl-5,6,7,8-tetrahydro-5,8-methanocinnoline-8-carbonyl)-N-methyl-3-azabicyclo[3.1.0]hexane-6-carboxamide], 2140 nM. As for `CC1(C)[C@@H]2CC[C@@]1(C(=O)N1CCC3CC31)c1nnc(-c3c(F)cccc3F)cc12` (stereo partly drawn) [Example 223, 2-azabicyclo[3.1.0]hexan-2-yl((5S,8S)-3-(2,6-difluorophenyl)-9,9-dimethyl-5,6,7,8-tetrahydro-5,8-methanocinnolin-8-yl)methanone], the figure is 196 nM; as for `CC(=O)O[C@@H]1C[C@H]2c3cc(-c4ccccc4F)nnc3[C@]1(C)C2(C)C` [Example 20, (5R,7R,8S)-3-(2-fluorophenyl)-8,9,9-trimethyl-5,6,7,8-tetrahydro-5,8-methanocinnolin-7-yl acetate], 1200 nM.

`CCN(C(=O)CO)C(C)(C)[C@@]12CC[C@@H](c3cc(-c4c(F)cccc4F)nnc31)C2(C)C` [Example 271, N-(2-((5R,8S)-3-(2,6-difluorophenyl)-9,9-dimethyl-5,6,7,8-tetrahydro-5,8-methanocinnolin-8-yl)propan-2-yl)-N-ethyl-2-hydroxyacetamide] had a concentration for half-maximal inhibition (IC50) of 189 nM. The value for `CC1(C)[C@@H]2CC[C@@]1(C(=O)N1CC3(CCCO3)C1)c1nnc(-c3c(F)cccc3F)cc12` [Example 221, ((5S,8S)-3-(2,6-difluorophenyl)-9,9-dimethyl-5,6,7,8-tetrahydro-5,8-methanocinnolin-8-yl)(5-oxa-2-azaspiro[3.4]octan-2-yl)methanone] was 612 nM; that for `CC1CN(C(=O)[C@]23CC[C@H](c4cc(-c5c(F)cccc5F)nnc42)C3(C)C)C1` [Example 100, [(5S,8S)-3-(2,6-difluorophenyl)-9,9-dimethyl-6,7-dihydro-5,8-methanocinnolin-8(5H)-yl](3-methylazetidin-1-yl)methanone] was 70 nM; that for `Cc1coc([C@@]23CC[C@@H](c4cc(-c5c(F)cccc5F)nnc42)C3(C)C)n1` [Example 108, (5R,8R)-3-(2,6-difluorophenyl)-9,9-dimethyl-8-(4-methyl-1,3-oxazol-2-yl)-5,6,7,8-tetrahydro-5,8-methanocinnoline] was 96 nM. In turn, `CC1(C)[C@H]2CC[C@]1(Cc1nnc(CO)o1)c1nnc(-c3c(F)cccc3F)cc12` (stereo in doubt) [Example 76, (5-{[(5R,8R)-3-(2,6-difluorophenyl)-9,9-dimethyl-6,7-dihydro-5,8-methanocinnolin-8(5H)-yl]methyl}-1,3,4-oxadiazol-2-yl)methanol] returned a half-inhibitory concentration (IC50) of 388 nM. Compound `Cc1nnc(N(CCO)C[C@@]23CC[C@@H](c4cc(-c5c(F)cccc5F)nnc42)C3(C)C)o1` [Example 155, 2-((((5R,8S)-3-(2,6-difluorophenyl)-9,9-dimethyl-5,6,7,8-tetrahydro-5,8-methanocinnolin-8-yl)methyl)(5-methyl-1,3,4-oxadiazol-2-yl)amino)ethanol] gave a half-maximal inhibitory concentration (IC50) of 67 nM. In turn, `Cc1ccn(C[C@]23CC[C@H](c4cc(-c5ccccc5F)nnc42)C3(C)C)n1` [Example 44, (5S,8R)-3-(2-fluorophenyl)-9,9-dimethyl-8-[(3-methyl-1H-pyrazol-1-yl)methyl]-5,6,7,8-tetrahydro-5,8-methanocinnoline] yielded an IC50 of 607 nM. The compound `Cc1cnn(C[C@]23CC[C@H](c4cc(-c5ccccc5F)nnc42)C3(C)C)c1` [Example 47, (5S,8R)-3-(2-fluorophenyl)-9,9-dimethyl-8-[(4-methyl-1H-pyrazol-1-yl)methyl]-5,6,7,8-tetrahydro-5,8-methanocinnoline] came in with an IC50 of 267 nM. `COC(=O)C1CN(C(=O)[C@@]23CC[C@@H](c4cc(-c5c(F)cccc5F)nnc42)C3(C)C)C1` [Example 136, methyl 1-((5R,8R)-3-(2,6-difluorophenyl)-9,9-dimethyl-5,6,7,8-tetrahydro-5,8-methanocinnoline-8-carbonyl)azetidine-3-carboxylate]: the IC50 is 524 nM.

Regarding `CC1(C)[C@H]2CC[C@]1(n1cnnc1)c1nnc(-c3c(F)cccc3F)cc12` [Example 107, (5R,8R)-3-(2,6-difluorophenyl)-9,9-dimethyl-8-(4H-1,2,4-triazol-4-yl)-5,6,7,8-tetrahydro-5,8-methanocinnoline], the half-inhibitory concentration (IC50) came out at 1500 nM. With `CC(C)(C)OC(=O)N[C@]12CC[C@H](c3cc(-c4c(F)cccc4F)nnc31)C2(C)C` [Example 256, tert-butyl ((5S,8S)-3-(2,6-difluorophenyl)-9,9-dimethyl-5,6,7,8-tetrahydro-5,8-methanocinnolin-8-yl)carbamate], the IC50 is 2330 nM.

Compound `CCOC[C@]12CC[C@H](c3cc(-c4ccccc4F)nnc31)C2(C)C` [Example 25, (5S,8S)-8-(ethoxymethyl)-3-(2-fluorophenyl)-9,9-dimethyl-5,6,7,8-tetrahydro-5,8-methanocinnoline] registered an IC50 of 139 nM. As for `CC1(O)CCN(C(=O)[C@]23CC[C@H](c4cc(-c5c(F)cccc5F)nnc42)C3(C)C)C1` (stereo partly drawn) [Example 219, ((5S,8S)-3-(2,6-difluorophenyl)-9,9-dimethyl-5,6,7,8-tetrahydro-5,8-methanocinnolin-8-yl)(3-hydroxy-3-methylpyrrolidin-1-yl)methanone], the figure is 1100 nM; as for `COCC1CN(C(=O)[C@@]23CC[C@@H](c4cc(-c5c(F)cccc5F)nnc42)C3(C)C)C1` [Example 137, ((5R,8R)-3-(2,6-difluorophenyl)-9,9-dimethyl-5,6,7,8-tetrahydro-5,8-methanocinnolin-8-yl)(3-(methoxymethyl)azetidin-1-yl)methanone], 182 nM; as for `CC1(C)[C@@H]2CC[C@@]1(COCc1ccc(C(=O)O)cc1)c1nnc(-c3ccccc3F)cc12` [Example 71, 4-({[(5S,8S)-3-(2-fluorophenyl)-9,9-dimethyl-6,7-dihydro-5,8-methanocinnolin-8(5H)-yl]methoxy}methyl) benzoic acid], 284 nM. Regarding `CC1(C)[C@H]2CC[C@]1(c1cnco1)c1nnc(-c3c(F)cccc3F)cc12` [Example 104, (5R,8R)-3-(2,6-difluorophenyl)-9,9-dimethyl-8-(1,3-oxazol-5-yl)-5,6,7,8-tetrahydro-5,8-methanocinnoline], the half-inhibitory concentration (IC50) is 222 nM. Compound `CCN(C[C@]12CC[C@H](c3cc(-c4c(F)cccc4F)nnc31)C2(C)C)C(=O)CCC(N)=O` [Example 342, N1-(((5S,8R)-3-(2,6-difluorophenyl)-9,9-dimethyl-5,6,7,8-tetrahydro-5,8-methanocinnolin-8-yl)methyl)-N1-ethylsuccinamide] gave an IC50 of 28 nM. The value for `CC(C)(O)[C@@]12CC[C@@H](c3cc(-c4c(F)cccc4F)nnc31)C2(C)C` [Example 300, 2-((5R,8R)-3-(2,6-difluorophenyl)-9,9-dimethyl-5,6,7,8-tetrahydro-5,8-methanocinnolin-8-yl)propan-2-ol] was 28 nM; that for `CCNC[C@@]12CC[C@@H](c3cc(-c4c(F)cccc4F)nnc31)C2(C)C` [Example 331, N-(((5R,8S)-3-(2,6-difluorophenyl)-9,9-dimethyl-5,6,7,8-tetrahydro-5,8-methanocinnolin-8-yl)methyl)ethanamine] was 877 nM.

As to `CCN(C[C@@]12CC[C@@H](c3cc(-c4c(F)cccc4F)nnc31)C2(C)C)C(=O)CS(C)(=O)=O` [Example 318, N-(((5R,8S)-3-(2,6-difluorophenyl)-9,9-dimethyl-5,6,7,8-tetrahydro-5,8-methanocinnolin-8-yl)methyl)-N-ethyl-2-(methylsulfonyl)acetamide], the IC50 was determined as 33 nM.

The compound `Cn1nccc1[C@@]12CC[C@@H](c3cc(-c4c(F)cccc4F)nnc31)C2(C)C` [Example 275, (5R,8S)-3-(2,6-difluorophenyl)-9,9-dimethyl-8-(1-methyl-1H-pyrazol-5-yl)-5,6,7,8-tetrahydro-5,8-methanocinnoline] yielded a 50% inhibitory concentration (IC50) of 146 nM. The value for `CC1(C)[C@H]2CC[C@]1(Cc1ncon1)c1nnc(-c3c(F)cccc3F)cc12` [Example 57, (5R,8R)-3-(2,6-difluorophenyl)-9,9-dimethyl-8-(1,2,4-oxadiazol-3-ylmethyl)-5,6,7,8-tetrahydro-5,8-methanocinnoline] was 85 nM.

Consider `CNC(=O)N(C)C[C@]12CC[C@H](c3cc(-c4ccccc4F)nnc31)C2(C)C` [Example 43, 1-{[(5S,8R)-3-(2-fluorophenyl)-9,9-dimethyl-6,7-dihydro-5,8-methanocinnolin-8(5H)-yl]methyl}-1,3-dimethylurea], for which the IC50 was 624 nM.

`CN(C)C(=O)[C@]12CC[C@H](c3cc(-c4c(F)cccc4F)nnc31)C2(C)C` [Example 73, (5S,8S)-3-(2,6-difluorophenyl)-N,N,9,9-tetramethyl-6,7-dihydro-5,8-methanocinnoline-8(5H)-carboxamide]: the IC50 was found to be 29 nM.

Values taken from patent US9981916B2 (Genentech, Inc., priority 2013, dated 2018).
